What all share (assay): biochemical
Assay [1] has as its target T1, panel of 374 wild-type kinases (Homo sapiens, UniProt P43403).
T1 construct: purchased Reaction Biology Corporation
T1 sequence (P43403 1-619): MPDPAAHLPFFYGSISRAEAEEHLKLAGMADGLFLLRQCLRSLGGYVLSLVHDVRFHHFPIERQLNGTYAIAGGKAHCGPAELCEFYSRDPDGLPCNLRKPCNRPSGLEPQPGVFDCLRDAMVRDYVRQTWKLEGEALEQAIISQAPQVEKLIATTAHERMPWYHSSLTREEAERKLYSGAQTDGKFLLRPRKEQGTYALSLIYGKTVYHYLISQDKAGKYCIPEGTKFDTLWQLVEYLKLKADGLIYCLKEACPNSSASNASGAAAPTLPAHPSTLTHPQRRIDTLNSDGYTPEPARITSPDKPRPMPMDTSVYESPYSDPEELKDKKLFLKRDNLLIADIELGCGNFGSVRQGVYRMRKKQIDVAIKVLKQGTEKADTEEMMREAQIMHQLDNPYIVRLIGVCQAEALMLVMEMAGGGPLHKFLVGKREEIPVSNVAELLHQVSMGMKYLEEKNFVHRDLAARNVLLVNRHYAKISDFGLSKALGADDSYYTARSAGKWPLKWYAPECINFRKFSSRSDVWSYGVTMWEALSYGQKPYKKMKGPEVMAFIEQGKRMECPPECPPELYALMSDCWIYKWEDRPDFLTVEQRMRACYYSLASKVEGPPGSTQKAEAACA
The conditions noted are these: read-out: % Enzyme Activity (relative to DMSO controls), kinase ZAP70.

In assay [2] the target is T2, panel of 374 wild-type kinases (Homo sapiens, UniProt Q9UQM7).
T2 construct: purchased Reaction Biology Corporation
T2 sequence (Q9UQM7 whole entry): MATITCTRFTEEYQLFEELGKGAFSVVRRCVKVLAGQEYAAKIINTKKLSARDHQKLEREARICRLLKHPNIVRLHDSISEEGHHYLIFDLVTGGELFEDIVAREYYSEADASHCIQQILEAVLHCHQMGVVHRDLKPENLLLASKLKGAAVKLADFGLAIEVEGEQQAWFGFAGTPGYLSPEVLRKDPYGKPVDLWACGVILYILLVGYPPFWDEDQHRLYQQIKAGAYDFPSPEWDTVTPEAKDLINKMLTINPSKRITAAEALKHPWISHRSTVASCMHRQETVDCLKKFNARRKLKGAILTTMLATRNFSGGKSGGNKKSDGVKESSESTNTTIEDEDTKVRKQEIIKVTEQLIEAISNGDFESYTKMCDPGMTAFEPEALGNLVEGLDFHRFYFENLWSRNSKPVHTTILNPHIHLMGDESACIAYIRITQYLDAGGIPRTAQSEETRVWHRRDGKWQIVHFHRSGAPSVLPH
Particulars: read-out: % Enzyme Activity (relative to DMSO controls), CAMK2a.

Assay [3] has as its target T3, panel of 374 wild-type kinases (Homo sapiens, UniProt P25098).
T3 construct: purchased Reaction Biology Corporation
T3 sequence (P25098 1-689): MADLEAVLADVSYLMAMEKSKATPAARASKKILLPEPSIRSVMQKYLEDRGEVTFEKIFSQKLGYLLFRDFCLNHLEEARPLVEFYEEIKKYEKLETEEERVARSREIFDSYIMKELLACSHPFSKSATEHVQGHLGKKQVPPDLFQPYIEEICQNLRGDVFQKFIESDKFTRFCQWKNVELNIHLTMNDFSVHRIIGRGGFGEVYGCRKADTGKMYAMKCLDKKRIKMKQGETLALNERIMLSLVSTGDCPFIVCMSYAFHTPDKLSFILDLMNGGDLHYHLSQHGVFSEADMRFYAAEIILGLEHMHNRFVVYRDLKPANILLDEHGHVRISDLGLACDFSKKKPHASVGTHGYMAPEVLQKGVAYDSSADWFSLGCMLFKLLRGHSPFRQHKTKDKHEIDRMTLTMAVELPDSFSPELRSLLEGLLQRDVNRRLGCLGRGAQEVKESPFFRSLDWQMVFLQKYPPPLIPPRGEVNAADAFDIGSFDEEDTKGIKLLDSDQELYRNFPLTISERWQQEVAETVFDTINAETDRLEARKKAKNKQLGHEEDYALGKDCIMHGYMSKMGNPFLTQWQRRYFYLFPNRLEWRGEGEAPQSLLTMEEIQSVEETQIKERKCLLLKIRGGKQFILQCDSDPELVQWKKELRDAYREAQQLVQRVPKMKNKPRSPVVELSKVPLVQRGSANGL
Particulars: read-out: % Enzyme Activity (relative to DMSO controls), GRK2.

The target in assay [4] is T4, panel of 374 wild-type kinases (Homo sapiens, UniProt P31751).
T4 construct: purchased Reaction Biology Corporation
T4 sequence (P31751 whole entry): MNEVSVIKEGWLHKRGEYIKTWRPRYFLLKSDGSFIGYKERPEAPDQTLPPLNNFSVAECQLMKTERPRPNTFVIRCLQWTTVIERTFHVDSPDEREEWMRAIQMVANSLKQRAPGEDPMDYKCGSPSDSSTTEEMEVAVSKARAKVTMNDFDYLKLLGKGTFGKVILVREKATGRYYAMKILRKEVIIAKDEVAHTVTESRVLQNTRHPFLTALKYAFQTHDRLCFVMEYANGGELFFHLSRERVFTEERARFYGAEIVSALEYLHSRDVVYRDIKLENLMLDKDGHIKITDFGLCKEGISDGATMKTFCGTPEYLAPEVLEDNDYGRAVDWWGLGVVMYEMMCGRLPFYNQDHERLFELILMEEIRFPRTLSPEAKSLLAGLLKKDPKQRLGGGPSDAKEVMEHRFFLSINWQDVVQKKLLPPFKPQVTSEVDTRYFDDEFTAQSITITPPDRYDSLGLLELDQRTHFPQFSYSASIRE
Particulars: read-out: % Enzyme Activity (relative to DMSO controls), AKT2.

The target in assay [5] is T5, panel of 374 wild-type kinases (Homo sapiens, UniProt P36897).
T5 construct: purchased Reaction Biology Corporation
T5 sequence (P36897 34-503): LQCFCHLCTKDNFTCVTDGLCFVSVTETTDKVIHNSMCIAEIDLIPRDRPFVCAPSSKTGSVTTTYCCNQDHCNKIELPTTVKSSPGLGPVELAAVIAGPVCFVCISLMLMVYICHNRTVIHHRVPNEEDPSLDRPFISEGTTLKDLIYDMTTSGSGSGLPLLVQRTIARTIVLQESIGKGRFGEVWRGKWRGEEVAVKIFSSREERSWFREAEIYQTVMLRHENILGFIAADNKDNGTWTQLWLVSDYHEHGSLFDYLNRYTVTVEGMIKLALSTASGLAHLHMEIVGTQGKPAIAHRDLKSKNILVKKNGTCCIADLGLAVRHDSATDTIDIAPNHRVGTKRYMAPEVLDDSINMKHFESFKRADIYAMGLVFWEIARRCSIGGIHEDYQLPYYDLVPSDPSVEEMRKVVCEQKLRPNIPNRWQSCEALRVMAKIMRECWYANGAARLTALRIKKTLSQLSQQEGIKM
The conditions noted are these: read-out: % Enzyme Activity (relative to DMSO controls), ALK5/TGFBR1.

The target in assay [6] is T6, panel of 374 wild-type kinases (Homo sapiens, UniProt Q86V86).
T6 construct: purchased Reaction Biology Corporation
Particulars: read-out: % Enzyme Activity (relative to DMSO controls), kinase PIM3.

Each structure is given as a SMILES string.

With `O=C(Nc1cnn(-c2csc(C(=O)NC3COC3)c2)c1)Nc1ccccc1Cl` [Compound 17, 4-(4-(3-(2-chlorophenyl)ureido)-1H-pyrazol-1-yl)-N-(oxetan-3-yl)thiophene-2-carboxamide], the remaining activity at 5 µM was found to be 102% in assay [1]; 100% in assay [2]; 96.1% in assay [3]; 89.5% in assay [4]; 103% in assay [5]; 61.2% in assay [6].
As to `O=C(Nc1cnn(-c2csc(C(=O)NC3COC3)c2)c1)Nc1c(F)cccc1Cl` [Compound 25, 4-(4-(3-(2-chloro-6-fluorophenyl)ureido)-1H-pyrazol-1-yl)-N-(oxetan-3-yl)thiophene-2-carboxamide], the remaining activity at 5 µM was 104% in assay [1]; 99.4% in assay [2]; 106% in assay [3]; 104% in assay [4]; 97.4% in assay [5]; 73.9% in assay [6].
Consider `Cc1sc(C(=O)NC2COC2)cc1-n1cc(NC(=O)Nc2c(F)cccc2Cl)cn1` [Compound 27, 4-(4-(3-(2-chloro-6-fluorophenyl)ureido)-1H-pyrazol-1-yl)-5-methyl-N-(oxetan-3-yl)thiophene-2-carboxamide], for which the remaining activity at 10 µM in assay [1] (10 uM) amounted to 103%; in assay [2] (10 uM), 99.7%; in assay [3] (10 uM), 106%; in assay [4] (10 uM), 89.8%; in assay [5] (10 uM), 104%; in assay [6] (10 uM) it was 129%.

For the origin of these results see patent US20240246942A1, “KINASE INHIBITORS FOR THE TREATMENT OF NEURODEGENERATIVE DISEASES” (priority 2020, published 2024).
